In US20200113852A1, “METHODS OF PATIENT SELECTION AND TREATING TRXR- OR PRDX-OVEREXPRESSED CANCERS” (TRIACT THERAPEUTICS, INC., priority 2017, published 2020):
Read-outs that look alike come from different tables or passages of the source. Each block holds one compound with its values, some of them ahead of it.

Experiments:
recombinant human GAPDH = target: T1, recombinant human GAPDH (Homo sapiens, UniProt P04406); assay: In vitro modification of GAPDH by Iniparib and I-NOBA; format: binding
T1 construct: purchased Acris
Experimental: For biochemical analysis, recombinant human GAPDH (Acris) was first reduced by a 15,000-fold excess of DTT at 56° C. for 30 min, the reducing agent being removed thereafter by chloroform/methanol precipitation. […] Afterwards the samples were submitted or not to another reducing step with 25 mM DTT (56° C., 30 min), and after removal of DTT by chloroform/methanol precipitation, biotinylation of free cysteine sulfhydryl groups of GAPDH was performed with HPDP-biotin (N-[6-(Biotinamido)hexyl]-3′-(2′-pyridyldithio)propionamide) at […] for 2 h at 20° C.
Sample mixtures were then reduced or not with 25 mM DTT (56° C., 30 min). Intact molecular weights were measured by mass spectrometry. Liquid chromatography-electrospray ionization mass spectrometry (LC/MS) was carried out using LTQ-Orbitrap Elite mass spectrometer (Thermo Fisher Scientific) coupled to a Famos Autosampler and an Ultimate Pump (LC-Packing, Dionex). Reverse phase chromatography was performed with a binary buffer system consisting of 0.2% formic acid (buffer A) and 80% acetonitrile in 0.2% formic acid (buffer B). After dilution to 1 pmole/μl in 0.2% formic acid, 1 μl of samples were loaded on a Poros 1 R/H column (75 μm×15 cm, Dionex). […] Mass spectra (m/z 500-2,000) were acquired in the positive ITMS mode with 5 μscans accumulation, a target value of 30,000 and a maximum injection time of 100 ms. The acquired raw files were converted in MassLynx format (Waters) using an home-made program and then were deconvoluted using MaxEnt software (Waters).

[1] = target: T2, human recombinant glutathione S-transferase pi (GSTP1) (Homo sapiens, UniProt P09211); assay: In vitro Iniparib-glutathione conjugation; format: biochemical; conditions: 30 μM, 1 mM GSH, absence of GSTP1
T2 construct: purchased Acris
Experimental: (§1) Online solid phase extraction (SPE) was performed using the fully automated Spark Holland Symbiosis™ (Emmen, The Netherlands) in eXtraction Liquid Chromatography (XLC) mode. The Symbiosis™ has previously been described in detail (18). HySphere™ C18 HD 7 μm SPE cartridges were used (Spark Holland). Each cartridge was initially conditioned with 2 ml methanol+0.5% formic acid (FA) and then equilibrated with 2 ml water+0.5% FA, both at flow-rates of 4 ml/min. Sample (25 μl) was aspirated and loaded onto the cartridge with 1 ml water+0.5% FA at a flow-rate of 1 ml/min. […] After elution, the right clamp was washed successively with 2 ml water+0.5% FA, 2 ml methanol+0.5% FA and 2 ml water+0.5% FA at 4 ml/min. […] The mobile phase composition was returned to starting conditions over 1 min and maintained during 6 min for column equilibration. The total run time was 27 min. Mass spectrometry was performed using the Thermo® TSQ Quantum Discovery Max in electrospray positive ionization mode (Thermo, US) with the following parameters: capillary voltage=4.0 kV, capillary temperature=300° C., sheath gas pressure=40, auxiliary gas pressure=5.

[2] = tested on: several cancer cell lines; assay: Cytotoxic activity on several cancer cell lines (preliminary screening); conditions: all cell lines
HCT116 cells = assay: Iniparib metabolites release, XLC-MS/MS of incubation media; format: in vitro ADME, human; design: unit not given beside the values
Experimental: as §1
(§2) All values are expressed as means±SEM of three independent experiments. ND., non detectable.

MDA-MB-453 cells = assay: as above; format: in vitro ADME, human; design: unit not given beside the values
Experimental: as §1, §2

[3] = tested on: Trx, JNK, p38MAPK, PARP in HCT116 cells; assay: Cell death signaling western blots (Trx oxidation, phospho-JNK, phospho-p38MAPK, cleaved-PARP)
Experimental: Cells extracts were analyzed by SDS-PAGE either under reducing conditions or under non-reducing conditions in the case of Trx blot followed by blots anti-phospho-JNK, anti-phospho-p38MAPK, anti-cleaved-PARP and anti-Trx. Results are representative of three independent experiments.
After 2 h at 4° C., lysates were clarified by centrifugation and protein amounts were measured using the BCA assay (Pierce, Thermo scientific).
Equal amounts of proteins were resolved by SDS-PAGE under either non-reducing or reducing (5% 2-mercaptoethanol, 20 min at 60° C.) conditions, using 4-20% gels (Novex, Invitrogen), then subjected to semi-dry electrophoretic transfer onto nitrocellulose membranes.

[4] = tested on: GSH in HCT116 and MDA-MB-453 cell lines; assay: GSH depletion with BSO (GSH-Glo glutathione assay); format: cell-based, human; conditions: 1 mM BSO for 18 h, both cell lines
Experimental: Cells were seeded (96 well plates) at increasing densities, the highest density corresponding to that used for viability studies. […] GSH amount was measured thereafter using GSH-Glo™ glutathione assay.

[5] = Phase I clinical trial GBM, pharmacokinetics; format: in vivo, human; conditions: for Cmax: geometric mean±SD, plasma; for Metabolite/iniparib concentration ratio: arithmetic average±SD
From the text: No cytochrome P450-inducing anticonvulsants. However, Gliadel was permitted.
Dosing is IV 2×/week continuous.

[6] = target: T3, TrxR1 and other protein targets in HCT116 cells (Homo sapiens, UniProt Q16881)
T3 sequence (Q16881 1-499 isoform Q16881-5): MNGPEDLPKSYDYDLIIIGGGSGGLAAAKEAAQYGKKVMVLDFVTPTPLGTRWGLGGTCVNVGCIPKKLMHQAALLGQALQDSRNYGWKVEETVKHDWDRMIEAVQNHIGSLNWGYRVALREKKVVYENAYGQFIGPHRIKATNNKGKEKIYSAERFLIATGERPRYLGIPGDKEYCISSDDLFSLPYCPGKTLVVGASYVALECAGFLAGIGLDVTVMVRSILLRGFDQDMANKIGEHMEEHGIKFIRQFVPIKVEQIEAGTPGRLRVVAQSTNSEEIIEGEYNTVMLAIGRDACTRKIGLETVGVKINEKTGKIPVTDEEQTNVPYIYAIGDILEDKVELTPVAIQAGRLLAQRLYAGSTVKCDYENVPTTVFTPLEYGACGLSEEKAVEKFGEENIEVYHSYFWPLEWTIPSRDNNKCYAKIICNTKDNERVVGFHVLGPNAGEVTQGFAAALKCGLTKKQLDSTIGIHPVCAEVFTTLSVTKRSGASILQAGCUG
Experimental: (§3) TrxR1 immunoprecipitates (FIG. 17A) and cells extracts (FIG. 17B) were analysed by SDS-PAGE under reducing conditions followed by streptavidin-HRP blot and TrxR1 blot.
(§4) Clarified octyl-glucoside lysates (12 mg proteins) were combined with anti-TrxR1 or anti-TrxR2 monoclonal antibody coupled to protein G plus agarose (Santa Cruz Biotechnology) and mixed overnight at 4° C. Beads were recovered by centrifugation for 2 min at 1,000×g and extensively washed in octyl-glucoside lysis buffer. Precipitated complexes were eluted by incubating the beads for 20 min at 60° C. in SDS sample buffer. The amount of immunoprecipitated TrxR1 and TrxR2 was systematically checked by blots anti-TrxR1 and anti-TrxR2, respectively.

[7] = tested on: TrxR1 and other protein targets in HCT116 cells; conditions: GSH-depleted HCT116
Experimental: as §3, §4

TrxR in HCT116 cells = target: T4, TrxR in HCT116 cells (Homo sapiens, UniProt Q16881); assay: Endogenous TrxR activity in cell lysates (DTNB reduction assay); format: cell-based
T4 sequence (Q16881 1-649): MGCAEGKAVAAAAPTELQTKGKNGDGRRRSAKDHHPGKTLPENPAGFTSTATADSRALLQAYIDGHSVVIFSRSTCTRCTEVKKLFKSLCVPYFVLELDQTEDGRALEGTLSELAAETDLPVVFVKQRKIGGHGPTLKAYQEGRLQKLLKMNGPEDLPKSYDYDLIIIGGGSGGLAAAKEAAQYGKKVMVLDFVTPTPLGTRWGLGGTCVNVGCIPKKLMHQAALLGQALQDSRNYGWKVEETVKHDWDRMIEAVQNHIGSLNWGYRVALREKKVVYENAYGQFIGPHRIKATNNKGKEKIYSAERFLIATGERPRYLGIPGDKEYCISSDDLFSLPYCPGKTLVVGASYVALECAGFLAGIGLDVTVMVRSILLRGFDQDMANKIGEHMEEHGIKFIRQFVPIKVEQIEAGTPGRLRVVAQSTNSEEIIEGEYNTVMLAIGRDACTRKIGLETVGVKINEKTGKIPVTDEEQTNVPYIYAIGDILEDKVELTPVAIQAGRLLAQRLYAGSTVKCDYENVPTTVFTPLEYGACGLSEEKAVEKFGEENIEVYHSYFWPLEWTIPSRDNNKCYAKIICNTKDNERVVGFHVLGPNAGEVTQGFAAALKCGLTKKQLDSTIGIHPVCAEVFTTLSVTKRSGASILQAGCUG

TrxR in MDA-MB-231 cells = assay: Endogenous TrxR activity (DTNB reduction assay); format: cell-based, human; conditions: GSH-depleted MDA-MB-231; iniparib 100 μM, Auranofin 1 μM, up to 4 h
From the text: Initial velocities were derived from linear regression analyses and then plotted in double reciprocal plots to obtain the half time of TrxR inhibition using an one phase exponential decay analysis (Prism, GraphPad software).

[8] = HCT116 w BSO, 1 h after 100 μM Iniparib
[9] = HCT116 w BSO, 5 h after 100 μM Iniparib
[10] = HCT116 w BSO, 24 h after 100 μM Iniparib
[11] = MDA-MB-453 w BSO, 1 h after 100 μM Iniparib
[12] = MDA-MB-453 w BSO, 5 h after 100 μM Iniparib
[13] = MDA-MB-453 w BSO, 24 h after 100 μM Iniparib
[14] = MDA-MB-453 w/o BSO, 24 h after 100 μM Iniparib

T1 sequence (P04406 whole entry): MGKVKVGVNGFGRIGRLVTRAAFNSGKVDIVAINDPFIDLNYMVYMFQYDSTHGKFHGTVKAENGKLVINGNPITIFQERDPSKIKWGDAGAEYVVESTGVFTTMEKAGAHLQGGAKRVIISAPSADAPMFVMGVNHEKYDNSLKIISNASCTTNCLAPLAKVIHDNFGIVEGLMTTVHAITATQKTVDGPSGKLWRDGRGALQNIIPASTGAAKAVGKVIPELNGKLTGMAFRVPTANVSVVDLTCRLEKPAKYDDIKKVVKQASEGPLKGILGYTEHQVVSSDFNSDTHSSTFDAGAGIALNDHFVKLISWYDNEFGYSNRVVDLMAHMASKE
T2 sequence (P09211 whole entry): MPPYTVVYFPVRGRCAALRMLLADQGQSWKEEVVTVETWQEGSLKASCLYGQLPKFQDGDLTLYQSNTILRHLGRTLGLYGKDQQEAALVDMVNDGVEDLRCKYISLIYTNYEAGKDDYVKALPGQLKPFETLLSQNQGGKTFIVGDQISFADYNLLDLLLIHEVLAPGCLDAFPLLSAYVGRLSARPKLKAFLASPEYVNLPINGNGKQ

Structure (SMILES): NC(=O)c1ccc(I)c(N=O)c1 [I-NOBA]
covalent modification of GAPDH (MS analysis) (recombinant human GAPDH; purified GAPDH incubated with compound): formation of protein adducts
blocking of free thiol groups in GAPDH (recombinant human GAPDH; purified GAPDH, biotin-HPDP labeling, streptavidin-HRP blot): completely blocked
reaction with GSH [1]: reacted with GSH
cytotoxic activity relative to Iniparib [2]: more active than Iniparib
Iniparib and metabolites in incubation media (HCT116 cells; [8]): 4.4 ± 0.0
Iniparib and metabolites in incubation media (HCT116 cells; [9]): 14.6 ± 0.1
Iniparib and metabolites in incubation media (HCT116 cells; [10]): 26.5 ± 2.9
Iniparib and metabolites in incubation media (MDA-MB-453 cells; [11]): 0.6 ± 0.1
Iniparib and metabolites in incubation media (MDA-MB-453 cells; [12]): 3.5 ± 0.7
Iniparib and metabolites in incubation media (MDA-MB-453 cells; [13]): 2.9 ± 1.0
Iniparib and metabolites in incubation media (MDA-MB-453 cells; [14]): 0.2 ± 0.1

Structure (SMILES): CN[C@@H]1C[C@H]2O[C@@](C)([C@@H]1OC)n1c3ccccc3c3c4c(c5c6ccccc6n2c5c31)C(=O)NC4 [staurosporine, reference compound]
PARP1 cleavage ([3]; GSH-depleted HCT116): triggered PARP1 cleavage
Trx oxidation ([3]; GSH-depleted HCT116, 7 h or 24 h, 100 μM Iniparib, 1 μM Auranofin, 100 nM Staurosporin): unable to induce oxidation of Trx

Structure (SMILES): CCCCS(=N)(=O)CCC(N)C(=O)O [BSO, L-buthionine sulfoximine]
GSH content [4]: below 5 % of controls

Structure (SMILES): Nc1cc(C(=O)O)ccc1I [IABA]
Cmax ([5]; 5.1 mg/kg IV 2×/week): 16.6 ± 5.2 ng/mL
Metabolite/iniparib concentration ratio ([5]; 5.1 mg/kg): 3.0 ± 2.0%
Cmax ([5]; 6.1 mg/kg IV 2×/week): 14.9 ± 8.3 ng/mL
Metabolite/iniparib concentration ratio ([5]; 6.1 mg/kg): 2.0 ± 1.5%
Cmax ([5]; 6.8 mg/kg IV 2×/week): 19.9 ± 6.6 ng/mL
Metabolite/iniparib concentration ratio ([5]; 6.8 mg/kg): 2.4 ± 1.4%
Cmax ([5]; 8.0 mg/kg IV 2×/week): 14.5 ± 15.0 ng/mL
Metabolite/iniparib concentration ratio ([5]; 8.0 mg/kg): 0.7 ± 0.7%
Cmax ([5]; 8.6 mg/kg IV 2×/week): 31.5 ± 10.4 ng/mL
Metabolite/iniparib concentration ratio ([5]; 8.6 mg/kg): 2.5 ± 1.4%
Cmax ([5]; 9.5 mg/kg IV 2×/week): 19.8 ± 14.0 ng/mL
Metabolite/iniparib concentration ratio ([5]; 9.5 mg/kg): 2.0 ± 2.0%

Structure (SMILES): CC(=O)OC[C@H]1O[C@@H]([S-])[C@H](OC(C)=O)[C@@H](OC(C)=O)[C@@H]1OC(C)=O.CCP(CC)CC.[Au+] [Auranofin]
p38MAPK and JNK phosphorylation ([3]; GSH-depleted HCT116, 7 h or 24 h): JNK and p38MAPK activation
TrxR1 labeling with Iniparib-biotin after preincubation ([6]; 90-min preincubation of GSH-depleted HCT116 (auranofin 10 μM or Iniparib 100 μM)): abolished
concentration preventing Iniparib-biotin labeling of the 55-kDa protein attributed to TrxR ([6]; GSH-depleted HCT116): 0.1 to 0.3 µM
concentration inhibiting all adduct formation with Iniparib-biotin [7]: 1 to 3 µM
inhibition of TrxR activity (TrxR in HCT116 cells; 1 μM, immediately after adding the compound to the cells): inhibited almost completely
IC50 (TrxR in HCT116 cells; 4 h treatment, BSO-pretreated HCT116): 70 nM
TrxR reductase activity (TrxR in MDA-MB-231 cells): inhibition of the reductase activity

Iniparib and metabolites in incubation media (HCT116 cells; [10]): 0.1 ± 0.0
Structure (SMILES): NC(=O)c1ccc(I)c(NO)c1 [I-HABM]

Structure (SMILES): NC(=O)c1ccc(I)c(N)c1 [I-ABM, 4-iodo-3 aminobenzamide]
Metabolite/iniparib concentration ratio ([5]; 5.1 mg/kg): 1.1 ± 0.6%
Metabolite/iniparib concentration ratio ([5]; 6.1 mg/kg): 0.9 ± 0.6%
Metabolite/iniparib concentration ratio ([5]; 6.8 mg/kg): 1.1 ± 0.9%
Metabolite/iniparib concentration ratio ([5]; 8.0 mg/kg): 0.3 ± 0.1%
Metabolite/iniparib concentration ratio ([5]; 8.6 mg/kg): 0.8 ± 0.6%
Metabolite/iniparib concentration ratio ([5]; 9.5 mg/kg): 0.8 ± 0.6%
Cmax ([5]; human, 5.1 mg/kg IV 2×/week, read-out: Cmax): 5.7 ± 4.1 ng/mL
Cmax ([5]; human, 6.1 mg/kg IV 2×/week, read-out: Cmax): 7.2 ± 1.8 ng/mL
Cmax ([5]; human, 6.8 mg/kg IV 2×/week, read-out: Cmax): 8.4 ± 3.7 ng/mL
Cmax ([5]; human, 8.0 mg/kg IV 2×/week, read-out: Cmax): 10.3 ± 2.9 ng/mL
Cmax ([5]; human, 8.6 mg/kg IV 2×/week, read-out: Cmax): 9.7 ± 2.4 ng/mL
Cmax ([5]; human, 9.5 mg/kg IV 2×/week, read-out: Cmax): 13.6 ± 5.3 ng/mL
Iniparib and metabolites in incubation media (HCT116 cells; [8]): 0.3 ± 0.1
Iniparib and metabolites in incubation media (HCT116 cells; [9]): 1.1 ± 0.3
Iniparib and metabolites in incubation media (HCT116 cells; [10]): 4.4 ± 1.2
Iniparib and metabolites in incubation media (HCT116 cells; HCT116 w/o BSO, 1 h after 100 μM Iniparib): 0.2 ± 0.1
Iniparib and metabolites in incubation media (HCT116 cells; HCT116 w/o BSO, 5 h after 100 μM Iniparib): 0.4 ± 0.1
Iniparib and metabolites in incubation media (HCT116 cells; HCT116 w/o BSO, 24 h after 100 μM Iniparib): 0.5 ± 0.2
Iniparib and metabolites in incubation media (MDA-MB-453 cells; [11]): 0.3 ± 0.1
Iniparib and metabolites in incubation media (MDA-MB-453 cells; [12]): 1.4 ± 0.1
Iniparib and metabolites in incubation media (MDA-MB-453 cells; [13]): 5.4 ± 0.2
Iniparib and metabolites in incubation media (MDA-MB-453 cells; MDA-MB-453 w/o BSO, 1 h after 100 μM Iniparib): 0.2 ± 0.0
Iniparib and metabolites in incubation media (MDA-MB-453 cells; MDA-MB-453 w/o BSO, 5 h after 100 μM Iniparib): 0.5 ± 0.2
Iniparib and metabolites in incubation media (MDA-MB-453 cells; [14]): 2.6 ± 0.2
